Square brackets hold non-standard residues; d marks the D form. Peptide text beside a SMILES is read from it.
How the values were obtained:
[1] = tested on: Male Sprague-Dawley rats; assay: Serum growth hormone levels in anaesthetized rats (peptide 1, BIM 23014C); format: in vivo, rat
Protocol: Evaluation in anaesthetized rats. Male Sprague-Dawley rats are anaesthetized with Sagatal and fitted so as to allow efficient intravenous treatment with control and test compounds as well as frequent blood sampling. Blood samples are tested for growth hormone (GH) levels by radioimmunoassay. Thirty minutes after the initiation of blood sampling, rats are given 5 μg, 25 μg or 50 μg of peptide 1.

[2] = target: T1, rat SSTR2 (Rattus norvegicus, UniProt P30680); assay: cAMP accumulation in forskolin-stimulated GH4 C1/SSTR2 cells; format: cell-based
T1 construct: expressed in transfected cells; host or cells: GH4C1 rat pituitary tumor cells
Source text: A primary effect of SRIF upon mammalian cells is the reduction of cyclic adenosine 3',5'-monophosphate(cAMP) levels, via inhibition of adenylyl cyclase. This is the basis of a common assay for SRIF agonists and antagonists, whereby SRIF agonists reduce artificially stimulated cAMP levels, and SRIF antagonists reverse the effect of SRIF. The rat pituitary tumor cell line GH4 C1 predominantly expresses SSTR2, and responds to SRIF and to forskolin, a stimulator of adenylate cyclase (see C. M. Eppler, et al., J. Biol. Chem., 267, 15603-15612, 1992, incorporated herein by reference). A highly sensitive assay for SRIF agonists and antagonists results from additionally transfecting GH4 C1 cells with the cloned rat SSTR2, (see L. A. Price, et al., Molecular and Cellular Biology, 15, 6188-6195, 1995, incorporated herein by reference). This increases the response to SRIF and provides a greater dynamic range for the measurement of SRIF antagonist activity.
Stimulation of cells. GH4 C1 /SSTR2 cells, grown in DMEM with 10% bovine serum, are released from a tissue culture dish by incubation for several minutes at 37° C. with PBS containing 0.5 mM EDTA. Cells are washed in induction buffer (PBS containing 100 μM IBMX (an inhibitor of cAMP breakdown) and 2 mM CaCl2) at room temperature, and resuspended at 2×10^6 /mL in induction buffer. Into each well of a 96-well tray are added 50 μL of a 2× concentration of stimulants in induction buffer. These include (at final concentration) 1.25 μM forskolin, 100 nM SRIF or 10 nM of the SSTR2-selective agonist MK678 and test peptides at various concentrations. To initiate stimulation of the cells, 50 μL (100,000) cells are added to each well, mixed by shaking 10 seconds on a plate shaker and placed at 37° C. for 15 minutes. Stimulation is arrested and cells are lysed by adding 15 μL 0.33N HCl to each well and incubating the plate for 30 minutes at 37° C. Samples are neutralized by addition of 15 μL 0.25N NaOH/50 mM Hepes pH 7.4. Baseline cAMP levels are determined in samples with no added forskolin or SRIF, and each treatment is performed in triplicate.
cAMP assay. To measure accumulated cAMP in the samples, a radioimmunoassay is employed. The scintillation proximity assay (SPA, Amersham, Arlington Heights, Ill.) allows the rapid measurement of ^125 I cAMP bound to a specific antibody without separating bound radioligand from free radioligand. Each of the following reagents (50 μL) are added per well in a 96-well tray: supernatants from the cell stimulation; ^125 I cAMP; SPA beads conjugated to monkey anti-rabbit IgG antibodies; and rabbit anti-cAMP antibodies. For the standard curve, known amounts of cAMP (0.2-12.8 pmol) are added in place of cell supernatants. The 96-well tray is sealed, shaken at room temperature overnight and measured for bound radioligand in a MicroBeta liquid scintillation counter (Wallac, Gaithersburg, Md.). The standard curve is determined for each experiment by performing a nonlinear regression (exponential decay) analysis of cpm measured for the cAMP standards vs. their log concentrations, and test sample values are determined by using Prism software (Graphpad Software Inc., San Diego, Calif.) and are shown in Table II and FIG. 1. FIG. I illustrates the antagonist activity of Peptide 1.
The intrinsic activity of an SRIF antagonist is the percent reversal of the SSTR2, activation by SRIF or MK678, wherein 0% is defined by cAMP levels in samples treated with forskolin plus SRIF or MK678 and 100% is the cAMP level measured after treatment with forskolin alone. Therefore, increased intrinsic activity of a test compound indicates increased antagonist activity of said test compound.
FIG. […]
An inverse agonist is a compound that is not only a pure antagonist (i.e. lacking agonist activity), but also blocks the constitutive activity of an unoccupied receptor. One indication of inverse agonist activity is the ability of a SRIF antagonist to increase cAMP levels in the absence of added SRIF. […]

T1 sequence (P30680 whole entry): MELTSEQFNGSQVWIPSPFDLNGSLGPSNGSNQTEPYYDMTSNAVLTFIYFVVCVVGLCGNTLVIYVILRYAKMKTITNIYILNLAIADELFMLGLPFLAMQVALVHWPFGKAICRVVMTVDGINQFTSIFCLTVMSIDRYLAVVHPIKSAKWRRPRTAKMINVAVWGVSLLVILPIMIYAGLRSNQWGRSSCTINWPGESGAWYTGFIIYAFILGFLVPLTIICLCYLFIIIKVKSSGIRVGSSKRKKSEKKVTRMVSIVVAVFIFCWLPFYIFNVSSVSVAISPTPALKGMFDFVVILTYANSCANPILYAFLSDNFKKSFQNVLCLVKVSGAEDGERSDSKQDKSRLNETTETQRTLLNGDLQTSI

CC[C@@H](C)[C@@H](NC(=O)[C@@H](Cc1ccccc1)NC(=O)[C@@H](Cc1c[nH]cn1)NC(C)=O)C(=O)N[C@H](CCCNC(=N)N)C(=O)N[C@H](Cc1c[nH]c2ccccc12)C(=O)N[C@H](Cc1ccccc1)C(N)=O [Peptide 1, h-f-i-r-w-f] (Ac-[dH][dF][dI][dR][dW][dF]-NH2)
SGH ([1]; 5 μg group, 90 min (time of 2nd peptide 1 dose, after BIM 23014C)): 2.4 ng/mL
SGH ([1]; 5 μg peptide 1 at 30 min, sample 35 min): 17.5 ng/mL
SGH ([1]; 5 μg peptide 1 at 30 min, sample 40 min): 14.9 ng/mL
SGH ([1]; 5 μg peptide 1 at 30 min, sample 45 min): 15.7 ng/mL
SGH ([1]; 5 μg peptide 1 group, i.v., 30 min (time of 1st peptide 1 dose)): 12.2 ng/mL
serum GH levels after first dose ([1]; 5 μg, 25 μg or 50 μg i.v. at 30 min): significant increase in serum GH levels resulting from the highest dose
SGH ([1]; 25 μg group, 90 min (time of 2nd peptide 1 dose, after BIM 23014C)): 5.1 ng/mL
SGH ([1]; 25 μg peptide 1 at 30 min, sample 35 min): 18.4 ng/mL
SGH ([1]; 25 μg peptide 1 at 30 min, sample 40 min): 17.5 ng/mL
SGH ([1]; 25 μg peptide 1 at 30 min, sample 45 min): 14.0 ng/mL
SGH ([1]; 25 μg peptide 1 group, i.v., 30 min (time of 1st peptide 1 dose)): 16.6 ng/mL
SGH ([1]; 50 μg group, 90 min (time of 2nd peptide 1 dose, after BIM 23014C)): 1.9 ng/mL
SGH ([1]; 50 μg peptide 1 at 30 min, sample 35 min): 50.2 ng/mL
SGH ([1]; 50 μg peptide 1 at 30 min, sample 40 min): 23.4 ng/mL
SGH ([1]; 50 μg peptide 1 at 30 min, sample 45 min): 15.5 ng/mL
SGH ([1]; 50 μg peptide 1 group, i.v., 30 min (time of 1st peptide 1 dose)): 19.7 ng/mL
SGH ([1]; 2nd dose 5 μg peptide 1 at 90 min after BIM 23014C, sample 95 min): 3.1 ng/mL
SGH ([1]; 2nd dose 5 μg peptide 1 at 90 min after BIM 23014C, sample 100 min): 1.7 ng/mL
SGH ([1]; 2nd dose 5 μg peptide 1 at 90 min after BIM 23014C, sample 105 min): 1.7 ng/mL
SGH ([1]; 2nd dose 5 μg peptide 1 at 90 min after BIM 23014C, sample 135 min): 1.1 ng/mL
SGH ([1]; 2nd dose 25 μg peptide 1 at 90 min after BIM 23014C, sample 95 min): 11.4 ng/mL
SGH ([1]; 2nd dose 25 μg peptide 1 at 90 min after BIM 23014C, sample 100 min): 10.5 ng/mL
SGH ([1]; 2nd dose 25 μg peptide 1 at 90 min after BIM 23014C, sample 105 min): 7.9 ng/mL
SGH ([1]; 2nd dose 25 μg peptide 1 at 90 min after BIM 23014C, sample 135 min): 5.2 ng/mL
SGH ([1]; 2nd dose 50 μg peptide 1 at 90 min after BIM 23014C, sample 95 min): 67.3 ng/mL
SGH ([1]; 2nd dose 50 μg peptide 1 at 90 min after BIM 23014C, sample 100 min): 31.8 ng/mL
SGH ([1]; 2nd dose 50 μg peptide 1 at 90 min after BIM 23014C, sample 105 min): 10.5 ng/mL
SGH ([1]; 2nd dose 50 μg peptide 1 at 90 min after BIM 23014C, sample 135 min): 2.6 ng/mL
serum GH levels after second dose ([1]; second dose 5 μg, 25 μg or 50 μg after BIM 23014C): even greater increase in serum GH levels from the highest dose
cAMP ([2]; Forskolin 1.25 μM + MK 678 10 nM, Peptide 1 1 μM): 1.14 pM per 4 × 10^4 cells
cAMP ([2]; Forskolin 1.25 μM + MK 678 10 nM, Peptide 1 10 μM): 2.69 pM per 4 × 10^4 cells
cAMP ([2]; Forskolin 1.25 μM + MK 678 10 nM, Peptide 1 50 μM): 3.32 pM per 4 × 10^4 cells
cAMP ([2]; Forskolin 1.25 μM, no MK 678, Peptide 1 1 μM): 2.57 pM per 4 × 10^4 cells
cAMP ([2]; Forskolin 1.25 μM, no MK 678, Peptide 1 10 μM): 3.05 pM per 4 × 10^4 cells
cAMP ([2]; Forskolin 1.25 μM, no MK 678, Peptide 1 50 μM): 3.33 pM per 4 × 10^4 cells
mode of antagonism from agonist dose response curves ([2]; S-14 or MK678 dose response with or without peptide 1): directly competing with the SRIF agonists
forskolin-stimulated cAMP levels in the absence of SRIF (inverse agonist activity) ([2]; no added SRIF): causes an increase in forskolin-stimulated cAMP levels even in the absence of SRIF
